The values that follow come from the METLIN SMRT retention time set (Domingo-Almenara et al. 2019).

A short description of the data set: gradient 5% acetonitrile 3 min, to 50% in 2 min, to 85% in 15 min, held 3 min, 100 µL/min. Conditions: column: Zorbax Extend-C18 2.1 x 50 mm; eluents: water / acetonitrile, 0.1% formic acid. An outline of the steps:
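In both positive and negative ionization mode, a quadrupole time-of-flight mass spectrometer coupled to HPLC analyzed pure standards run in mixtures of ~100 molecules. The Zorbax Extend-C18 column (2.1 × 50 mm, 1.8 μm) was operated at 100 μL/min with water and acetonitrile, each containing 0.1% formic acid. The dead volume was 40 μL and the dwell volume 900 μL. Retention time came from adduct peaks that were computationally picked and individually inspected by hand.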
`CCCn1c(=O)sc2cc(S(=O)(=O)N3CCC(C(=O)NC(C)(C)CC)CC3)ccc21` returned an RP-LC retention time of 979 s.

The compound `O=C(NCc1ccncc1)C1CN(S(=O)(=O)c2ccccc2)CC12CCCCC2` (stereo not drawn) had an RP-LC retention time of 594 s.

For the compound `COc1cccc2cc(C(=O)N3CC(c4nc(C5CC5)no4)C3)oc12`, the RP-LC retention time was found to be 788 s.

`C[C@@H](C(=O)NCC1(CC(=O)O)CCCCC1)n1nnc2ccccc2c1=O` yielded an RP-LC retention time of 748 s.

Regarding `CCc1ccc(NC(=O)Cn2c(=O)cc(-c3nc(C)no3)c3ccccc32)cc1`, the RP-LC retention time came to 930 s.

`Cc1cn(C)c(CC(=O)N2CCc3ccccc32)c1C(=O)O`: the RP-LC retention time was 742 s.

In turn, `COc1ccc(OC)c(CNC(=O)C2c3ccccc3C(=O)N3CCc4ccccc4C23)c1` (stereo not drawn) yielded an RP-LC retention time of 867 s.

Turning to `O=C(NCc1cc(F)ccc1F)c1ccc2c(c1)nc1n2CCN(C2CCCCC2)C1=O`, the RP-LC retention time came to 830 s.

Compound `Cc1sc(NC(=O)CC(C)C)nc1-c1ccc2c(c1)NC(=O)CO2` had an RP-LC retention time of 822 s.

In turn, `CCCc1noc(-c2ccc(=O)n(CC(=O)Nc3cc(C)cc(C)c3)c2)n1` returned an RP-LC retention time of 902 s.

`O=C(NC1CCCc2ccccc21)C1CCN(C(=O)C2Sc3ccccc3NC2=O)CC1` (stereo not drawn) had an RP-LC retention time of 793 s.

Compound `Cc1ccc2c(c1)N(S(C)(=O)=O)CCC(C(=O)NC1CCCCCCC1)O2` (stereo not drawn) came in with an RP-LC retention time of 1050 s.

In turn, `CCCn1ccc2sc(C)c(C(=O)NCc3cccc(Br)c3)c2c1=O` returned an RP-LC retention time of 998 s.

`Cc1cc(C)cc(NC(=O)Nc2nccn(-c3ccc(Br)cc3)c2=O)c1` returned an RP-LC retention time of 1130 s.

The compound `Cc1cc(C)c(S(=O)(=O)Nc2ccc(-c3ccc4nnc(C)n4n3)cc2)cc1C` came in with an RP-LC retention time of 741 s.

In the case of `CCOc1ccc(N2C(=O)C3N=NN(Cc4nc(-c5ccc(OC)c(OC)c5)no4)C3C2=O)cc1` (stereo not drawn), the RP-LC retention time was determined as 906 s.

In turn, `COc1cc(N2CCC(N3CCN(C)CC3)CC2)ccc1Nc1ncc(Cl)c(Nc2ccccc2S(=O)(=O)C(C)C)n1` yielded an RP-LC retention time of 694 s.

In the case of `CCc1ccc(OCC(=O)Nc2cnn(CC)c(=O)c2N2CCOCC2)cc1`, the RP-LC retention time was 981 s.

Compound `Cc1nnc(-c2c(S(=O)(=O)NCc3ccco3)c(C)n(C)c2C)o1` showed an RP-LC retention time of 729 s.

In turn, `CCOc1ccccc1NC(=O)C1CCN(C(=O)C2Sc3ccccc3NC2=O)CC1` (stereo not drawn) came in with an RP-LC retention time of 814 s.

In turn, `Cc1ccsc1C(=O)N1CCC(c2nc(CCOCC3CC3)no2)C1` (stereo not drawn) displayed an RP-LC retention time of 812 s.

For the compound `CC1CCN(C(=O)c2ccc3c(c2)CC(=O)N3C)CC1`, the RP-LC retention time is 692 s.

`CCn1c(C)c(CCC(=O)NCCOC)c(=O)n2nc(-c3ccccc3)nc12` had an RP-LC retention time of 665 s.

`Cc1cc(C)n(CC(=O)N[C@@H]2CN(S(C)(=O)=O)C[C@H]2CN(C)C)n1` returned an RP-LC retention time of 564 s.

`COc1ccc2c(C)c(C(=O)Nc3ccc4cn[nH]c4c3)oc2c1` displayed an RP-LC retention time of 794 s.

`Cc1ccc(-c2[nH]ncc2CN2CCC3(CC2)CC(C)(O)CCO3)cc1` (stereo not drawn) came in with an RP-LC retention time of 597 s.

In turn, `CN(C)c1ccc(C(CNC(=O)c2ccco2)N2CCc3ccccc3C2)cc1` (stereo not drawn) registered an RP-LC retention time of 582 s.

Compound `Cc1ccc(CNC(=O)NCC2Cn3cccc3C(=O)N2C)cc1` (stereo not drawn) gave an RP-LC retention time of 680 s.

Regarding `Cc1ccccc1-c1noc(CSc2nc3cc4c(cc3c(=O)n2Cc2ccccc2)OCO4)n1`, the RP-LC retention time stood at 1300 s.

Consider `CCOC(=O)c1cc(S(=O)(=O)N2CCCC2C(=O)Nc2cc(C)cc(C)c2)cn1C` (stereo not drawn), for which the RP-LC retention time turned out to be 1020 s.

Compound `Cn1c(=O)c2c(ncn2CC(=O)N2CCCn3nc(-c4ccccc4)cc3C2)n(C)c1=O` returned an RP-LC retention time of 647 s.

In turn, `CCN(CC)c1nc2ccsc2c(=O)n1CCC(=O)NCCc1c[nH]c2ccccc12` had an RP-LC retention time of 822 s.

Take `COc1ccc(-c2noc(C3CCCN3C(=O)c3ccsc3)n2)cc1OC` (stereo not drawn): the RP-LC retention time was 834 s.

In turn, `CN1C(=O)c2cc(C(=O)NCc3ccc(Cl)cc3)nn2CC1(C)C(=O)NCc1ccccc1` (stereo not drawn) came in with an RP-LC retention time of 832 s.

The compound `CCOC(=O)N1CCN(c2nc(F)c3c(c2F)S(=O)(=O)CCN3CC2CCCO2)CC1` (stereo not drawn) showed an RP-LC retention time of 958 s.

`CCc1ccc(C2=C(C)C(N3CCCN(C(=O)C4CCC4)CC3)=NS2(=O)=O)cc1` yielded an RP-LC retention time of 875 s.

`OC1(c2ccccn2)CCOC2(CCN(Cc3cccc(F)c3F)CC2)C1` (stereo not drawn): the RP-LC retention time was 571 s.

In the case of `Cc1cccc(C)c1-n1ccn(Cc2nc(-c3ccc(F)cc3)no2)c(=O)c1=O`, the RP-LC retention time is 884 s.

`Cc1c(F)cccc1NS(=O)(=O)c1cc(-c2nc(C(C)(C)C)cs2)cs1` returned an RP-LC retention time of 1310 s.

Regarding `Cc1ccc(-n2c(=O)c3c(cc(C)n3C)n(CC(=O)Nc3c(C)cc(C)cc3C)c2=O)cc1`, the RP-LC retention time came to 626 s.

As for `Fc1ccccc1-c1noc(-c2nc(Cc3ccccc3)no2)n1`, the RP-LC retention time is 1160 s.

The compound `O=C(NCCOc1ccc(-c2ccccn2)nn1)c1ccco1` yielded an RP-LC retention time of 555 s.

As for `O=C(Cn1nc2c(Sc3cccc(F)c3)nccn2c1=O)N1CCN(c2ccccc2)CC1`, the RP-LC retention time was found to be 914 s.

For the compound `CC(=O)Nc1c(C)nn(-c2ccc(Cl)cc2)c1N1CCC(C(=O)NCc2ccco2)CC1`, the RP-LC retention time came to 685 s.

For the compound `CCN1C(=O)COc2ccc(-c3noc(-c4ccc(Br)cc4)n3)cc21`, the RP-LC retention time was determined as 1240 s.

With `NS(=O)(=O)c1ccc(NC(=O)Cc2csc3nc(-c4ccccc4)cn23)cc1`, the RP-LC retention time stood at 650 s.

Turning to `Cc1ccc2c(c1)N(Cc1nc(C3CC3)no1)N=C(C(=O)N1CCC(C)CC1)S2(=O)=O`, the RP-LC retention time is 992 s.

As to `O=C(Nc1ccc(N2CCN(C3CCCC3)C2=O)nc1)c1cccc(F)c1`, the RP-LC retention time came to 876 s.

Regarding `CCn1cc(-c2ccccc2)cc1C(=O)NC(C)c1cccnc1` (stereo not drawn), the RP-LC retention time is 692 s.

The compound `Cc1cccc2c(=O)n(C3CCN(S(=O)(=O)c4ccc(Cl)cc4)CC3)cnc12` yielded an RP-LC retention time of 1030 s.

On to `Clc1ccc(-c2ccc(CNCc3ccco3)o2)c(Cl)c1`, for which the RP-LC retention time was determined as 743 s.

In the case of `CC1(C(=O)NCc2ccccc2)CN(S(C)(=O)=O)CC(=O)N1c1cccc(F)c1` (stereo not drawn), the RP-LC retention time is 710 s.

As for `CCN(CC)CCCNC(=O)C1CCCN(c2ncnc3c2nc2n3CCCCC2)C1` (stereo not drawn), the RP-LC retention time stood at 556 s.

Consider `COc1ccc(OC)c(NC(=O)Cn2c(=O)n(-c3ccc(C)cc3)c3ncccc32)c1`, for which the RP-LC retention time amounted to 896 s.

In turn, `Cc1ccc(C)c(N2CCN(Cc3nc(-c4ccc(N5CCCC5)nc4)no3)CC2)c1` showed an RP-LC retention time of 784 s.

With `CCOc1cc(=O)n2c(c1C(=O)NCC1CCCCC1)CCCCC2`, the RP-LC retention time was determined as 772 s.

Compound `Cc1ccccc1NC(=O)C1CCN(S(=O)(=O)c2cc(C(=O)N3CCCC3)cs2)CC1` displayed an RP-LC retention time of 760 s.

As for `CCN1CCn2cc(S(=O)(=O)NCc3ccccc3C(F)(F)F)cc2C1=O`, the RP-LC retention time is 760 s.

Consider `COc1ccc(-c2nn3c(COc4ccc(Br)cc4)nnc3s2)cc1OC`, for which the RP-LC retention time is 980 s.

`COc1cccc(CNC(=O)[C@@H]2[C@H](c3cc(OC)c(OC)c(OC)c3)c3cc4c(cc3[C@H](O)[C@H]2CO)OCO4)c1OC`: the RP-LC retention time came to 702 s.

In turn, `Cc1ccc(-c2noc(C3CCCN3S(=O)(=O)c3c(C)c(C)cc(C)c3C)n2)cc1` (stereo not drawn) returned an RP-LC retention time of 788 s.

Consider `COc1ccc(Cl)cc1-n1nnc(C(=O)NC2CC2)c1-c1ccncc1`, for which the RP-LC retention time was determined as 715 s.

With `COC(=O)c1c(C)[nH]c(C(=O)N2CCCC(C(=O)NCCCN3CCCCC3)C2)c1C` (stereo not drawn), the RP-LC retention time turned out to be 596 s.

Regarding `COc1ccc(-c2noc(C3CC(=O)N(c4ccc(Cl)cc4)C3)n2)cc1` (stereo not drawn), the RP-LC retention time turned out to be 1040 s.

Compound `CN1C(=O)COc2ccc(-c3csc(NC(=O)c4cccc(Cl)c4)n3)cc21` had an RP-LC retention time of 1020 s.

In the case of `CN(C)[C@@H]1CN(C(=O)c2ccsc2)CC[C@]1(O)c1ccccc1`, the RP-LC retention time amounted to 576 s.

Consider `CCn1cnc2ccc(-c3noc(-c4cccc(F)c4)n3)cc21`, for which the RP-LC retention time was determined as 769 s.

For `COC(=O)c1c(C)c(C(=O)C(C)N(CCC(C)C)C(=O)c2cccc(F)c2)c(C)n1C` (stereo not drawn), the RP-LC retention time is 1100 s.

Compound `COCCNc1c(-c2ccccc2)nc2sc(C(=O)N3CCCC3)c(C)n12` gave an RP-LC retention time of 922 s.

`CC(O)c1nc2c(c(=O)n(C)c(=O)n2C)n1C` (stereo not drawn) displayed an RP-LC retention time of 622 s.

In the case of `O=C(Nc1cc(F)ccc1F)Nc1cccn2cnnc12`, the RP-LC retention time worked out at 727 s.

On to `Cc1cccc(Cn2cccc2-c2nc(-c3ccc4c(c3)OCO4)no2)c1`, for which the RP-LC retention time was 1360 s.

Take `COc1cc(-c2nc(Cn3cnc4ccccc4c3=O)no2)cc(OC)c1OC`: the RP-LC retention time came to 795 s.

`COc1ccccc1N1CCN(CCNS(=O)(=O)c2ccc(F)c(C)c2)CC1` came in with an RP-LC retention time of 608 s.

As to `C=CCSc1nc2ccccc2c2nc(-c3ccncc3)nn12`, the RP-LC retention time turned out to be 1150 s.

As to `Cc1ccc(NC(=O)Nc2ccc3nnc(C)n3c2)cc1F`, the RP-LC retention time was determined as 710 s.

`Cc1ccnc(NC(c2ccccc2)c2ccc3cccnc3c2O)c1` (stereo not drawn) came in with an RP-LC retention time of 752 s.

`COCc1noc([C@@H]2CN(C(=O)CCc3c(C)noc3C)C[C@H]2C(N)=O)n1` yielded an RP-LC retention time of 607 s.
